Key:
Assay type in all cases: in vivo
Sphaerotheca fuliginea = assay: Sphaerotheca test (cucumber)/protective; conditions: Podosphaera fuliginea, 168 h, 500 ppm active substance, protective, evaluation 7 days after inoculation, read-out: degree of effectiveness
Description: • Solvent: 49 parts by weight of N,N-dimethylformamide • Emulsifier: 1 part by weight of alkylaryl polyglycol ether (polyoxyethylene (16) tristearylphenyl ether) To prepare a suitable active substance composition, 1 part by weight of active substance is mixed with the given amounts of solvents and emulsifier and the concentrate is diluted to the desired concentration using water. For the testing of protective effectiveness, young cucumber plants are sprayed with the active substance composition in the application rate given. One day after treatment, the plants are inoculated with a suspension of spores of Sphaerotheca fuliginea. The plants are then placed in a greenhouse at 70% relative humidity and a temperature of 23° C. Evaluation is carried out 7 days after the inoculation. In this connection, 0% means a degree of effectiveness corresponding to that of the control, while a degree of effectiveness of 100% means that no infestation is observed.

Puccinia triticina [1] = assay: Puccinia triticina test (wheat)/protective; conditions: 192 h, 500 ppm active substance, protective, evaluation 8 days after inoculation, read-out: degree of effectiveness
Description: (§1) • Solvent: 50 parts by weight of N,N-dimethylacetamide • Emulsifier: 1 part by weight of alkylaryl polyglycol ether (polyoxyethylene (16) tristearylphenyl ether)
(§2) To prepare a suitable active substance composition, 1 part by weight of active substance is mixed with the given amounts of solvent and emulsifier and the concentrate is diluted to the desired concentration using water.
For the testing of protective effectiveness, young plants are sprayed with the active substance composition in the application rate given. After the spray coating has been dried on, the plants are sprayed with a suspension of spores of Puccinia triticina. The plants remain in an incubation chamber at 20° C. and 100% relative humidity for 48 hours. The plants are placed in a greenhouse at a temperature of approximately 20° C. and a relative humidity of approximately 80%.
(§3) Evaluation is carried out 8 days after the inoculation. In this connection, 0% means a degree of effectiveness corresponding to that of the control, while a degree of effectiveness of 100% means that no infestation is observed.

Puccinia triticina [2] = assay: Puccinia triticina test (wheat)/curative; conditions: 192 h, 500 ppm active substance, curative, evaluation 8 days after inoculation, read-out: degree of effectiveness
Description: as §1, §2
For the testing of curative effectiveness, young plants are sprayed with a suspension of spores of Puccinia triticina. The plants remain in an incubation chamber at 20° C. and 100% relative humidity for 48 hours and are then sprayed with the active substance composition in the application rate given. The plants are placed in a greenhouse at a temperature of approximately 20° C. and a relative humidity of approximately 80%.
as §3

Alternaria solani = assay: Alternaria test (tomato)/protective; conditions: 72 h, 100 ppm active substance, protective, evaluation 3 days after inoculation, read-out: degree of effectiveness
Description: • Solvents: 24.5 parts by weight of acetone • 24.5 parts by weight of dimethylacetamide • Emulsifier: 1 part by weight of alkylaryl polyglycol ether (polyoxyethylene (16) tristearylphenyl ether)
To prepare a suitable active substance composition, 1 part by weight of substance is mixed with the given amounts of solvents and emulsifier and the concentrate is diluted to the desired concentration using water.
For the testing of protective effectiveness, young plants are sprayed with the active substance composition in the application rate given. After the spray coating has been dried on, the plants are inoculated with an aqueous suspension of spores of Alternaria solani. The plants are then placed in an incubation chamber at approximately 20° C. and 100% relative humidity.
Evaluation is carried out 3 days after the inoculation. In this connection, 0% means a degree of effectiveness corresponding to that of the control, while a degree of effectiveness of 100% means that no infestation is observed.

Compound	pest or weed control at 500 ppm (Sphaerotheca fuliginea)	pest or weed control at 500 ppm (Puccinia triticina [1])	pest or weed control at 500 ppm (Puccinia triticina [2])	pest or weed control at 100 ppm (Alternaria solani)
CCN(C)C=Nc1cc(C)c(Oc2nc([C@@H]3C[C@H]3c3ccccc3)ns2)cc1Cl (relative stereo) [Compound 29, rel-N′-[2-chloro-5-methyl-4-({3-[(1R,2R)-2-phenylcyclopropyl]-1,2,4-thiadiazol-5-yl}oxy)phenyl]-N-ethyl-N-methylimidoformamide]	≥ 70%	≥ 70%	≥ 70%	
Cc1cc(N=CN(C)C(C)C)c(Cl)cc1Oc1nc([C@@H]2C[C@H]2c2ccccc2)ns1 (relative stereo) [Compound 31, rel-N′-[2-chloro-5-methyl-4-({3-[(1R,2R)-2-phenylcyclopropyl]-1,2,4-thiadiazol-5-yl}oxy)phenyl]-N-methyl-N-(propan-2-yl)imidoformamide]	≥ 70%	≥ 70%	≥ 70%	
Cc1cc(N=CN(C)C(C)C)c(Cl)cc1Oc1nc(C2(Cl)CC2)ns1 [Compound 4, N′-(2-chloro-4-{[3-(1-chlorocyclopropyl)-1,2,4-thiadiazol-5-yl]oxy}-5-methylphenyl)-N-methyl-N-propan-2-ylimidoformamide]	≥ 70%	≥ 70%	≥ 70%	
Cc1cc(/N=C/N2CCCCC2)c(Cl)cc1Oc1nc(C2(Cl)CC2)ns1 [Compound 5, 2-chloro-4-{[3-(1-chlorocyclopropyl)-1,2,4-thiadiazol-5-yl]oxy}-5-methyl-N-[(E)-piperidin-1-ylmethylidene]aniline]	≥ 70%	≥ 70%	≥ 70%	
Cc1cc(/N=C/N2CCCCC2)c(Cl)cc1Oc1nc(C(C)c2ccc(Cl)cc2)ns1 (centres unmarked) [Compound 7, 2-chloro-4-({3-[1-(4-chlorophenyl)ethyl]-1,2,4-thiadiazol-5-yl}oxy)-5-methyl-N-[(E)-piperidin-1-ylmethylidene]aniline]	≥ 70%			
CCN(C)/C=N/c1cc(C)c(Oc2nc(CCc3ccc(Cl)cc3)ns2)cc1Cl [Compound 9, N′-[2-chloro-4-({3-[2-(4-chlorophenyl)ethyl]-1,2,4-thiadiazol-5-yl}oxy)-5-methylphenyl]-N-ethyl-N-methylimidoformamide]	≥ 70%	≥ 70%	≥ 70%	
CCN(C)/C=N/c1cc(C)c(Oc2nc(C(C)(C)c3ccc(Cl)cc3)ns2)cc1Cl [Compound 11, N′-[2-chloro-4-({3-[2-(4-chlorophenyl)propan-2-yl]-1,2,4-thiadiazol-5-yl}oxy)-5-methylphenyl]-N-ethyl-N-methylimidoformamide]	≥ 70%	≥ 70%	≥ 70%	≥ 70%
Cc1cc(/N=C\N2CCCCC2)c(Cl)cc1Oc1nc(C(C)(C)c2ccc(Cl)cc2)ns1 [Compound 12, 2-chloro-4-({3-[2-(4-chlorophenyl)propan-2-yl]-1,2,4-thiadiazol-5-yl}oxy)-5-methyl-N-[(Z)-piperidin-1-ylmethylidene]aniline]	≥ 70%			≥ 70%
Cc1cc(/N=C\N2CCCCC2)c(Cl)cc1Oc1nc(/C=C/c2ccc(F)cc2)ns1 [Compound 16, 2-chloro-4-({3-[(E)-2-(4-fluorophenyl)ethenyl]-1,2,4-thiadiazol-5-yl}oxy)-5-methyl-N-[(Z)-piperidin-1-ylmethylidene]aniline]	≥ 70%			
CCN(C)/C=N/c1cc(C)c(Oc2nc(CCl)ns2)cc1Cl [Compound 19, N′-(2-chloro-4-{[3-(chloromethyl)-1,2,4-thiadiazol-5-yl]oxy}-5-methylphenyl)-N-ethyl-N-methylimidoformamide]			≥ 70%	
Cc1cc(N=CN(C)C(C)C)c(Cl)cc1Oc1nc(C2(c3ccc(Cl)cc3)CC2)ns1 [Compound 20, N′-[2-chloro-4-({3-[1-(4-chlorophenyl)cyclopropyl]-1,2,4-thiadiazol-5-yl}oxy)-5-methylphenyl]-N-methyl-N-(propan-2-yl)imidoformamide]	≥ 70%	≥ 70%	≥ 70%	
Cc1cc(/N=C\N2CCCCC2)c(Cl)cc1Oc1nc(C2(c3ccc(Cl)cc3)CC2)ns1 [Compound 21, 2-chloro-4-({3-[1-(4-chlorophenyl)cyclopropyl]-1,2,4-thiadiazol-5-yl}oxy)-5-methyl-N-[(Z)-piperidin-1-ylmethylidene]aniline]	≥ 70%			
CCN(C)/C=N/c1cc(C)c(Oc2nc(COc3ccc(Cl)cc3)ns2)cc1Cl [Compound 22, N′-[2-chloro-4-({3-[(4-chlorophenoxy)methyl]-1,2,4-thiadiazol-5-yl}oxy)-5-methylphenyl]-N-ethyl-N-methylimidoformamide]	≥ 70%			
C=CCN(C)C=Nc1cc(C)c(Oc2nc(C(C)(C)C)ns2)cc1Cl [Compound 25, N′-{4-[(3-(tert-butyl)-1,2,4-thiadiazol-5-yl)oxy]-2-chloro-5-methylphenyl}-N-methyl-N-(prop-2-en-1-yl)imidoformamide]	≥ 70%	≥ 70%	≥ 70%	
Cc1cc(N=CN(C)CC2CC2)c(Cl)cc1Oc1nc(C(C)(C)C)ns1 [Compound 26, N′-{4-[(3-(tert-butyl)-1,2,4-thiadiazol-5-yl)oxy]-2-chloro-5-methylphenyl}-N-(cyclopropylmethyl)-N-methylimidoformamide]	≥ 70%	≥ 70%	≥ 70%	
CCN(C)/C=N/c1cc(C)c(Oc2nc(C(C)(C)Cc3ccccc3)ns2)cc1Cl [Compound 28, N′-(2-chloro-5-methyl-4-{[3-(2-methyl-1-phenylpropan-2-yl)-1,2,4-thiadiazol-5-yl]oxy}phenyl)-N-ethyl-N-methylimidoformamide]	≥ 70%	≥ 70%		≥ 70%
CCN(C)C=Nc1cc(C)c(Oc2nc(Cc3cccc(C(F)(F)F)c3)ns2)cc1Cl [Compound 34, N′-[2-chloro-5-methyl-4-({3-[3-(trifluoromethyl)benzyl]-1,2,4-thiadiazol-5-yl}oxy)phenyl]-N-ethyl-N-methylimidoformamide]	≥ 70%	≥ 70%	≥ 70%	
CCN(C)/C=N/c1cc(C)c(Oc2nc(COc3cccc(Cl)c3)ns2)cc1Cl [Compound 35, N′-[2-chloro-4-({3-[(3-chlorophenoxy)methyl]-1,2,4-thiadiazol-5-yl}oxy)-5-methylphenyl]-N-ethyl-N-methylimidoformamide]	≥ 70%	≥ 70%	≥ 70%	
CCN(C)/C=N/c1cc(C)c(Oc2nc(COc3ccccc3Cl)ns2)cc1Cl [Compound 36, N′-[2-chloro-4-({3-[(2-chlorophenoxy)methyl]-1,2,4-thiadiazol-5-yl}oxy)-5-methylphenyl]-N-ethyl-N-methylimidoformamide]	≥ 70%		≥ 70%	
CCN(C)/C=N/c1cc(C)c(Oc2nc(COc3ccccc3)ns2)cc1Cl [Compound 37, N′-(2-chloro-5-methyl-4-{[3-(phenoxymethyl)-1,2,4-thiadiazol-5-yl]oxy}phenyl)-N-ethyl-N-methylimidoformamide]	≥ 70%			
